# Residues, ends and D or L forms follow the SMILES beside them. *: point of attachment. Cbz = O=C(OCc1ccccc1)*
# Legend:
# [1] = biological target: T1, BCL6^5-129 (Homo sapiens, UniProt P41182); assay: BCL6-BCoR TR-FRET (compound binding assay); details: 0.1 μM FITCBCoR polypeptide, 0.1 μM BiotinBCL6^5-129
# T1 construct: mixing 100 nM biotinylated BCL6^5-129, 100 nM N-terminal FITC-labeled BCoR peptide; made in house; host or cells: Trichoplusia ni High Five insect cells, baculovirus
# Procedure: Competitive titration of BI-3802 or BI-3812 were carried out by mixing 100 nM biotinylated BCL6^5-129, 100 nM N-terminal FITC-labeled BCoR peptide (sequence: […]), and 2 nM terbium-coupled streptavidin in the same assay buffer. After dispensing the assay mixture (15 μL volume), increasing concentrations of compounds were dispensed in a 384-well microplate (Corning, 4514) using a D300e Digital Dispenser (HP) normalized to 1% DMSO. The 520/490 nm ratios were measured as described above and plotted to calculate the KD^APP values using dose-response analysis standard four parameter log-logistic curves using the dr4pl R package.
# [2] = biological target: T2, BCL6-eGFP fusion construct (Homo sapiens, UniProt P41182); assay: Live cell imaging of BCL6-eGFP foci in HEK293T cells; assay type: cell-based; details: eGFPBCL6^1-250, 10 μM BI-3812 added 75 minutes after 1 μM BI-3802
# T2 construct: expressed in transfected cells; host or cells: HEK293TCas9 cells, lentiviral transduction (Cilantro2 vector)
# Procedure: 1×10^3 HEK293T cells per cm^2 were seeded in a μ-Slide 8 Well chamber (ibidi) and cultured for 18-24 h under standard growth conditions. Cell culture medium was exchanged to CO2 independent media (Gibco) and imaged with the DeltaVision Ultra High-Resolution Microscope (GE Healthcare, 100×lens, oil refraction index=1.520). The following acquisition parameters were used: Image size […], binning 1×1, GFP exposure time 0.08 sec. and the Neutral Density (% T) filter 32%. To capture foci within all cell volume, around 26μm per cell was imaged every 0.4-0.5 μm. Images were deconvolved (10 cycles, conservative conditions) and projected using maximal intensity by softWoRx® 7.0.0. Images for movies were taken every 10 minutes and combined to a movie by QuickTime.
# [3] = biological target: T3, BCL6^5-360 - SIAH1^SBD (Homo sapiens, UniProt P41182); assay: BCL6-SIAH1 TR-FRET; assay type: biochemical; details: in vitro, increasing compound concentration
# T3 construct: 200 nM BodipyFL-labeled BCL6^5-360 variants; His6 (N); Spy (C); made in house; host or cells: Trichoplusia ni High Five insect cells, baculovirus
# Procedure: After dispensing the assay mixture (15 μL volume), increasing concentrations of compounds were dispensed in a 384-well microplate (Corning, 4514) using a D300e Digital Dispenser (HP) normalized to 1% DMSO. After excitation of terbium fluorescence at 337 nm, emission at 490 nm (terbium) and 520 nm (BodipyFL) were recorded with a 70 us delay over 600 μs to reduce background fluorescence, and the reaction was followed over 60 cycles of each data point using a PHERAstar FS microplate reader (BMG Labtech). The TR-FRET signal of each data point was extracted by calculating the 520/490 nm ratio. The half-maximal effective concentration (EC50) values were estimated using dose-response analysis standard four parameter log-logistic curves, fitted to the experimental data using […] package. […] After dispensing the assay mixture, increasing concentration of BodipyFL-BCL6^5-360 was added to the SIAH1 mixture in a […] (7.5 μL each, total 15 μL assay volume). The 520/490 nm ratios were measured in as described above and plotted to calculate the KD^APP values using dose-response analysis standard four parameter log-logistic curves using […] package.
# [4] = biological target: T4, eGFPBCL6 stability reporter (Homo sapiens, UniProt P41182); assay: Degradation of BCL6 reporter constructs in HEK293T cells (flow cytometry); assay type: cell-based; details: for effect on BI-3802-induced degradation of eGFPBCL6^FL: HEK293TCas9 cells, 0.5 μM MLN7243, 5 μM MLN4924 or 10 μM MG132 for 3 hours plus 1 μM BI-3802 for 1 hour
# T4 construct: the full length BCL6 (BCL6^FL) was fused in-frame with eGFP; expressed in transfected cells; host or cells: HEK293TCas9 cells, lentiviral transduction (Artichoke vector)
# Procedure: Lentivirus was packaged in HEK293T cells using TransIT (Mirus) and subsequently used for spin infection.
# HEK293TCas9 cells expressing indicated constructs in “Artichoke” or “Cilantro2” stability reporter vectors (PGK or SFFV Target-eGFP-IRES-mCherry, puromycin resistance) were plated in 96 well plates and treated for indicated times. BCL6-eGFP and mCherry expression were quantified by flow cytometry (CytoFLEX, Beckman or LSR Fortessa flow cytometer BD Biosciences). All degradation assays were done in at least triplicates. Geometric means of eGFP and mCherry fluorescent signals for live and mCherry positive cells were exported using flow cytometry analysis software (FlowJo, BD). Ratios of eGFP to mCherry were normalized to the average of DMSO-treated controls.
# [5] = tested on: SuDHL4Cas9 cells; assay: Whole proteome quantification using tandem mass tag mass spectrometry; assay type: cell-based, human; details: SuDHL4 cells, 1 μM compound, 4 hours
# Procedure: 10×10^6 SuDHL4Cas9 cells were treated with DMSO, 1 μM BI-3802 or 1 μM BI-3812 for 1 h or 4 h in triplicates and cells were harvested by centrifugation. Samples were processed, measured and analyzed as previously described (Donovan, K. A. et al. Thalidomide promotes degradation of SALL4, a transcription factor implicated in Duane Radial Ray syndrome. Ehfe 7, doi:10.7554/eLife.38430 (2018)). Data are available in the PRIDE repository (PXD016185).
smiles,measurement,setting,value
"CNC(=O)COc1cc2cc(Nc3nc(N4CCC(C(=O)N(C)C)CC4)ncc3Cl)cc(OC)c2n(C)c1=O [BI-3812, 1-(5-chloro-4-((8-methoxy-1-methyl-3-(2-(methylamino)-2-oxoethoxy)-2-oxo-1,2-dihydroquinolin-6-yl)amino)pyrimidin-2-yl)-N,N-dimethylpiperidine-4-carboxamide]",affinity of compound to BCL6 (BCoR peptide competition),[1],comparable affinity
same,reversal of BI-3802-induced foci,[2],fully reversible
same,effect on the BCL6-SIAH1 interaction (TR-FRET),[3],did not influence the BCL6-SIAH1 interaction
same,block of BI-3802-induced BCL6 degradation,"[4]; HEK293T cells expressing eGFPBCL6^1-275, simultaneous BI-3802 and excess BI-3812, 24 hours",efficiently blocked BI-3802-induced BCL6 degradation
same,degradation of full-length BCL6 reporter (eGFPBCL6^FL),"[4]; HEK293T cells, 1 μM, 1 hour",did not alter stability of the reporter
same,change in polypeptide abundance (whole proteome),[5],did not alter the abundance of any polypeptide
CC(C)C[C@@H](C=O)NC(=O)[C@H](CC(C)C)NC(=O)[C@H](CC(C)C)NC(=O)OCc1ccccc1 [MG132] (Cbz-Leu-Leu-Leu-aldehyde),effect on BI-3802-induced degradation of eGFPBCL6^FL,[4],attenuated
NS(=O)(=O)OC[C@@H]1C[C@@H](n2ccc3c(N[C@H]4CCc5ccccc54)ncnc32)C[C@@H]1O [MLN4924],effect on BI-3802-induced degradation of eGFPBCL6^FL,[4],not by inhibition of the neddylation pathway with MLN4924
NS(=O)(=O)OC[C@H]1C[C@@H](Nc2ccnc3cc(-c4cccc(SC(F)(F)F)c4)nn23)[C@H](O)[C@@H]1O [MLN7243],effect on BI-3802-induced degradation of eGFPBCL6^FL,[4],attenuated
